Measured values published in PubChem BioAssay (NCI).
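These data come from cells grown in 96-well plates and exposed to compound for 48 hours at five concentrations. Definition used: TGI = concentration required for complete inhibition of growth.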

Columns and labels:
Assay in all cases: NCI tumour cell line growth inhibition, 48 h
[1] = tested on: KM12 colon
[2] = tested on: SW-620 colon
[3] = tested on: CAKI-1 renal
[4] = tested on: NCI-H23 lung
[5] = tested on: HOP-62 NSCLC
[6] = tested on: NCI-H460 lung
[7] = tested on: OVCAR-3 ovarian
[8] = tested on: UACC-62 melanoma
[9] = tested on: OVCAR-8 ovarian
[10] = tested on: SNB-19 CNS

Q: Which TGI [1] does the source give for `[O-]c1c2c(nn1-c1ccc(F)cc1)c1ccccc1c[n+]2Cc1ccccc1` here?
A: Its TGI is 25 µM.

Q: What about the TGI [2] of the same compound?
A: Its TGI is 48.7 µM.

Q: And the TGI [3]?
A: Its TGI is 94.7 µM.

Q: And the TGI [4]?
A: The TGI was 55.8 µM.

Q: What about the TGI [5] of the same compound?
A: Its TGI is 32.1 µM.

Q: And the TGI [6]?
A: Its TGI is 29.7 µM.

Q: What about the TGI [7] of the same compound?
A: The TGI was 22.1 µM.

Q: And the TGI [8]?
A: Its TGI is 14.2 µM.

Q: And the TGI [9]?
A: The TGI was 61.9 µM.

Q: What about the TGI [10] of the same compound?
A: Its TGI is > 100 µM.

Q: With `CN(C)CCC(=O)[C@@]1(O)CC[C@H]2[C@@H]3CC=C4C[C@@H](O)CC[C@]4(C)[C@H]3CC[C@@]21C` as the compound, how does the TGI [1] read?
A: The TGI was 45.3 µM.

Q: What about the TGI [2] of the same compound?
A: The TGI was 50.2 µM.

Q: What about the TGI [3] of the same compound?
A: The TGI was 34.6 µM.

Q: And the TGI [4]?
A: The TGI was 56.1 µM.

Q: What about the TGI [5] of the same compound?
A: Its TGI is 30.6 µM.

Q: And the TGI [6]?
A: The TGI was 30.9 µM.

Q: What about the TGI [7] of the same compound?
A: The TGI was 29.7 µM.

Q: What about the TGI [8] of the same compound?
A: The TGI was 32.2 µM.

Q: And the TGI [9]?
A: The TGI was 40 µM.

Q: And the TGI [10]?
A: Its TGI is > 64.8 µM.

Q: `O=C(c1ccccc1)c1ccc(N2C(=O)/C(=C/c3cccc(Oc4ccccc4)c3)N=C2c2ccccc2)c(N2C(=O)/C(=C/c3cccc(Oc4ccccc4)c3)N=C2c2ccccc2)c1` was tested. Which TGI [1] did it give?
A: Its TGI is > 100 µM.

Q: And the TGI [2]?
A: Its TGI is > 100 µM.

Q: And the TGI [3]?
A: The TGI was > 100 µM.

Q: What about the TGI [4] of the same compound?
A: The TGI was > 100 µM.

Q: And the TGI [5]?
A: Its TGI is > 100 µM.

Q: And the TGI [6]?
A: The TGI was 80.4 µM.

Q: What about the TGI [7] of the same compound?
A: The TGI was 69.8 µM.

Q: What about the TGI [8] of the same compound?
A: Its TGI is 24.5 µM.

Q: And the TGI [9]?
A: The TGI was > 100 µM.

Q: And the TGI [10]?
A: The TGI was > 100 µM.

Q: With `NC1=NC(c2ccc(Cl)cc2)=CC(c2cccc(Cl)c2)S1` (stereo not drawn) as the compound, how does the TGI [1] read?
A: The TGI was > 100 µM.

Q: What about the TGI [2] of the same compound?
A: The TGI was > 100 µM.

Q: And the TGI [3]?
A: Its TGI is 92.5 µM.

Q: And the TGI [4]?
A: Its TGI is > 100 µM.

Q: What about the TGI [5] of the same compound?
A: Its TGI is > 100 µM.

Q: What about the TGI [6] of the same compound?
A: The TGI was > 100 µM.

Q: And the TGI [7]?
A: Its TGI is > 100 µM.

Q: What about the TGI [8] of the same compound?
A: The TGI was 51.4 µM.

Q: And the TGI [9]?
A: Its TGI is > 100 µM.

Q: And the TGI [10]?
A: The TGI was 44.9 µM.

Q: For `CCCCC(CC)C(=O)Oc1ccc(C(=O)c2ccccc2)c(O)c1` (stereo not drawn), which TGI [1] is on record?
A: The TGI was > 100 µM.

Q: What about the TGI [2] of the same compound?
A: The TGI was > 100 µM.

Q: And the TGI [3]?
A: The TGI was > 100 µM.

Q: What about the TGI [4] of the same compound?
A: The TGI was > 100 µM.

Q: And the TGI [5]?
A: The TGI was > 100 µM.

Q: What about the TGI [6] of the same compound?
A: The TGI was > 100 µM.

Q: What about the TGI [7] of the same compound?
A: The TGI was > 100 µM.

Q: And the TGI [8]?
A: The TGI was > 100 µM.

Q: And the TGI [9]?
A: The TGI was > 100 µM.

Q: What about the TGI [10] of the same compound?
A: The TGI was > 100 µM.

Q: How did the TGI [1] turn out when `CCOC(=O)N1c2ccccc2N(C(=O)OCC)C1CC(=O)/C=C/c1ccccc1` was run?
A: The TGI was 9.51 µM.

Q: What about the TGI [2] of the same compound?
A: Its TGI is 25 µM.

Q: And the TGI [3]?
A: The TGI was 12.6 µM.

Q: And the TGI [4]?
A: Its TGI is 8.7 µM.

Q: What about the TGI [5] of the same compound?
A: The TGI was 17.6 µM.

Q: And the TGI [6]?
A: Its TGI is 11.1 µM.

Q: What about the TGI [7] of the same compound?
A: The TGI was 9.95 µM.

Q: What about the TGI [8] of the same compound?
A: Its TGI is 10.2 µM.

Q: What about the TGI [9] of the same compound?
A: The TGI was 8.63 µM.

Q: And the TGI [10]?
A: Its TGI is 16.8 µM.

Q: With `CC(C)=CCC/C(C)=C/Cc1c2c(c3oc(-c4ccc(O)c(O)c4)c(O)c(=O)c3c1O)C=CC(C)(C)O2` as the compound, how does the TGI [1] read?
A: The TGI was 9.89 µM.

Q: And the TGI [3]?
A: The TGI was 5.55 µM.

Q: What about the TGI [4] of the same compound?
A: Its TGI is 11.6 µM.

Q: What about the TGI [5] of the same compound?
A: The TGI was 10.7 µM.

Q: What about the TGI [6] of the same compound?
A: The TGI was 10.9 µM.

Q: What about the TGI [7] of the same compound?
A: The TGI was 6.34 µM.

Q: What about the TGI [8] of the same compound?
A: The TGI was 12.4 µM.

Q: And the TGI [9]?
A: Its TGI is 7.92 µM.

Q: What about the TGI [10] of the same compound?
A: The TGI was 12.5 µM.

Q: Which results are given for `O=C1c2cc3c(cc2[C@@H]2C(O)[C@H]4O[C@H]4C4CCN1C42)OCO3` (stereo partly drawn)?
A: TGI [1]: > 37.5 µM; TGI [2]: > 37.5 µM; TGI [3]: > 37.5 µM; TGI [5]: > 37.5 µM; TGI [6]: > 37.5 µM; TGI [7]: > 37.5 µM; TGI [8]: > 37.5 µM; TGI [9]: > 37.5 µM; TGI [10]: > 37.5 µM

Q: With `Cc1csc2nc(-c3cc([N+](=O)[O-])c(Cl)cc3Cl)c(/C=N/N=C(N)N)n12` as the compound, how does the TGI [1] read?
A: The TGI was 32.4 µM.

Q: What about the TGI [2] of the same compound?
A: Its TGI is 32.5 µM.

Q: And the TGI [3]?
A: The TGI was 29.8 µM.

Q: And the TGI [4]?
A: Its TGI is 33 µM.

Q: What about the TGI [5] of the same compound?
A: The TGI was 35 µM.

Q: What about the TGI [6] of the same compound?
A: Its TGI is 45.7 µM.

Q: What about the TGI [7] of the same compound?
A: Its TGI is 43.6 µM.

Q: What about the TGI [8] of the same compound?
A: The TGI was 27.2 µM.

Q: What about the TGI [9] of the same compound?
A: Its TGI is 36.1 µM.

Q: What about the TGI [10] of the same compound?
A: Its TGI is 36.5 µM.
